Each structure is given as a SMILES string.

Drawing on patent US20120302566A1, “INDANYLOXYDIHYDROBENZOFURANYLACETIC ACIDS” (BOEHRINGER INGELHEIM INTERNATIONAL GMBH, priority 2010, published 2012), this text covers EC50 for 31 molecules.

The test deals with human GPR40 receptor (Homo sapiens, UniProt O14842). Nature of the test: IP1 accumulation measurements using the IPOne assay system. Format: cell-based. Particulars: IP1 accumulation (IPOne HTRF), 1 hour stimulation; 1321N1 cells stably expressing human GPR40; read-out: EC50 values on GPR40 determined as described in (B). How it is done: (B) IP1 accumulation measurements using the IPOne assay system—1321N1 cells stably expressing human GPR40 receptor (Euroscreen, Belgium) were seeded 24 h before the assay in black clear-bottom collagen-coated 384-well plates in culture medium containing 10% FCS, 1% Na-Pyruvate and 400 μg/mL G418. IP1 is assayed according to the Manufacturer's description (Cisbio Bioassays, France). In brief, the assay is started by substitution of the culture medium by stimulation buffer (Hepes 10 mM, CaCl2 1 mM, MgCl2 0.5 mM, KCl 4.2 mM, NaCl 146 mM and glucose 5.5 mM, pH 7.4) without LiCl. Cells are stimulated for 1 hour at 37°, 10% CO2 by addition of the compounds that were diluted in stimulation buffer containing LiCl yielding a final LiCl concentration of 50 mM. Assays are stopped by adding HTRF-conjugates (IP1-d2 and Anti-IP1 cryptate Tb) and lysis buffer, provided by the manufacturer. After an incubation time of 1 hour at room temperature plates are measured using an EnVision™, Perkin Elmer.
Sequence of human GPR40 receptor (O14842 whole entry): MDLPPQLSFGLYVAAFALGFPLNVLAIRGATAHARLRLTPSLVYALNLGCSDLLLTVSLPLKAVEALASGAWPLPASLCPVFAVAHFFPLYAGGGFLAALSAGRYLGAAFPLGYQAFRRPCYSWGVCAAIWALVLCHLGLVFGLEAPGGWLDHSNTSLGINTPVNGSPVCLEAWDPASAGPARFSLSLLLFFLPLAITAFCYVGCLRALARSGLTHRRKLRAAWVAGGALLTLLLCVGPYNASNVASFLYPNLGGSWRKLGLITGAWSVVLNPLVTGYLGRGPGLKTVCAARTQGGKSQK
In general terms: In TR-FRET formats the signal depends on donor and acceptor labels being close together.
Usually EC50 stands for the concentration at which the effect is half-maximal. As to `O=C(O)C[C@@H]1COc2cc(O[C@H]3CCc4ccc(C(F)(F)F)cc43)ccc21` [Example 50, {(S)-6-[(S)-6-Trifluoromethyl-indan-1-yloxy]-2,3-dihydro-benzofuran-3-yl]-acetic acid], the EC50 was determined as 2.97 µM. Consider `O=C(O)C[C@@H]1COc2cc(O[C@@H]3CCc4c3cccc4-n3ccccc3=O)ccc21` [Example 51, {(S)-6-[(R)-4-(2-Oxo-2H-pyridin-1-yl)-indan-1-yloxy]-2,3-dihydro-benzofuran-3-yl}-acetic acid], for which the EC50 is 9.67 µM. Regarding `Cc1cccc(C)c1-c1ccc2c(c1)CC[C@H]2Oc1ccc2c(c1)OC[C@H]2CC(=O)O` [Example 52, {(S)-6-[(R)-5-(2,6-Dimethyl-phenyl)-indan-1-yloxy]-2,3-dihydro-benzofuran-3-yl}-acetic acid], the EC50 amounted to 0.113 µM.

Turning to `Cc1cccc(C)c1-c1ccc2c(c1)[C@@H](Oc1ccc3c(c1)OC[C@H]3CC(=O)O)CC2` [Example 53, {(S)-6-[(S)-6-(2,6-Dimethyl-phenyl)-indan-1-yloxy]-2,3-dihydro-benzofuran-3-yl}-acetic acid], the EC50 came out at 0.211 µM.

Turning to `CC(C)c1ccccc1-c1ccc2c(c1)CC[C@H]2Oc1ccc2c(c1)OC[C@H]2CC(=O)O` [Example 54, {(S)-6-[(R)-5-(2-Isopropyl-phenyl)-indan-1-yloxy]-2,3-dihydro-benzofuran-3-yl}-acetic acid], the EC50 came out at 0.258 µM. Then `O=C(O)C[C@@H]1COc2cc(O[C@H]3CCc4ccc(Br)cc43)ccc21` [Example 55, {(S)-6-[(S)-6-Bromo-indan-1-yloxy]-2,3-dihydro-benzofuran-3-yl}-acetic acid], with 2.91 µM.

Turning to `O=C(O)C[C@@H]1COc2cc(O[C@@H]3CCc4c(C5=CCCCC56CCOCC6)cccc43)ccc21` [Example 56, {(S)-6-[(R)-4-(3-Oxa-spiro[5.5]undec-7-en-7-yl)-indan-1-yloxy]-2,3-dihydro-benzofuran-3-yl}-acetic acid], the EC50 was determined as 0.124 µM. Regarding `Cn1ccnc1-c1cccc2c1CC[C@H]2Oc1ccc2c(c1)OC[C@H]2CC(=O)O` [Example 57, {(S)-6-[(R)-4-(1-methyl-1H-imidazol-2-yl)-indan-1-yloxy]-2,3-dihydro-benzofuran-3-yl}-acetic acid], the EC50 was 8.9 µM.

For `Cc1cccnc1-c1cccc2c1CC[C@H]2Oc1ccc2c(c1)OC[C@H]2CC(=O)O` [Example 58, {(S)-6-[(R)-4-(3-Methyl-pyridin-2-yl)-indan-1-yloxy]-2,3-dihydro-benzofuran-3-yl}-acetic acid], the EC50 turned out to be 0.534 µM. For the molecule `COc1cc(C)c(-c2cccc3c2CC[C@H]3Oc2ccc3c(c2)OC[C@H]3CC(=O)O)c(C)c1` [Example 59, {(S)-6-[(R)-4-(4-Methoxy-2,6-dimethyl-phenyl)-indan-1-yloxy]-2,3-dihydro-benzofuran-3-yl}-acetic acid], the EC50 came out at 0.325 µM. The result for `COc1ncc(C)c(-c2cccc3c2CC[C@H]3Oc2ccc3c(c2)OC[C@H]3CC(=O)O)c1C` [Example 60, {(S)-6-[(R)-4-(2-Methoxy-3,5-dimethyl-pyridin-4-yl)-indan-1-yloxy]-2,3-dihydro-benzofuran-3-yl}-acetic acid] reads 0.051 µM; that for `Cc1cn(C)c(=O)c(C)c1-c1cccc2c1CC[C@H]2Oc1ccc2c(c1)OC[C@H]2CC(=O)O` [Example 61, {(S)-6-[(R)-4-(1,3,5-Trimethyl-2-oxo-1,2-dihydro-pyridin-4-yl)-indan-1-yloxy]-2,3-dihydro-benzofuran-3-yl}-acetic acid], 0.155 µM; that for `Cc1ccccc1-c1cccc2c1CC[C@H]2Oc1ccc2c(c1)OC[C@H]2CC(=O)O` [Example 62, {(S)-6-[(R)-4-o-Tolyl-indan-1-yloxy]-2,3-dihydro-benzofuran-3-yl}-acetic acid], 0.052 µM. Then `Cc1cc(=O)n(C)c(C)c1-c1cccc2c1CC[C@H]2Oc1ccc2c(c1)OC[C@H]2CC(=O)O` [Example 63, {(S)-6-[(R)-4-(1,2,4-Trimethyl-6-oxo-1,6-dihydro-pyridin-3-yl)-indan-1-yloxy]-2,3-dihydro-benzofuran-3-yl}-acetic acid], with 3.15 µM; and `COc1cc(C)c(-c2cccc3c2CC[C@H]3Oc2ccc3c(c2)OC[C@H]3CC(=O)O)c(C)n1` [Example 64, {(S)-6-[(R)-4-(6-Methoxy-2,4-dimethyl-pyridin-3-yl)-indan-1-yloxy]-2,3-dihydro-benzofuran-3-yl}-acetic acid], with 0.213 µM; and `O=C(O)C[C@@H]1COc2cc(O[C@@H]3CCc4c3cccc4N3CCOCC3)ccc21` [Example 65, {(S)-6-[(R)-4-Morpholin-4-yl-indan-1-yloxy]-2,3-dihydro-benzofuran-3-yl}-acetic acid], with 1.85 µM. The result for `COc1cc(-c2cccc3c2CC[C@H]3Oc2ccc3c(c2)OC[C@H]3CC(=O)O)c(F)cn1` [Example 68, {(S)-6-[(R)-4-(5-Fluoro-2-methoxy-pyridin-4-yl)-indan-1-yloxy]-2,3-dihydro-benzofuran-3-yl}-acetic acid] reads 0.359 µM. For `O=C(O)C[C@@H]1COc2cc(O[C@@H]3CCc4c(-c5ccccc5C(F)(F)F)cccc43)ccc21` [Example 69, {(S)-6-[(R)-4-(2-Trifluoromethyl-phenyl)-indan-1-yloxy]-2,3-dihydro-benzofuran-3-yl}-acetic acid], the EC50 came out at 0.088 µM.

Turning to `CC1(C)CCCC=C1c1cccc2c1CC[C@H]2Oc1ccc2c(c1)OC[C@H]2CC(=O)O` [Example 70, {(S)-6-[(R)-4-(6,6-Dimethyl-cyclohex-1-enyl)-indan-1-yloxy]-2,3-dihydro-benzofuran-3-yl}-acetic acid], the EC50 is 0.008 µM. Then `COc1ccc(C)c(-c2cccc3c2CC[C@H]3Oc2ccc3c(c2)OC[C@H]3CC(=O)O)c1` [Example 71, {(S)-6-[(R)-4-(5-Methoxy-2-methyl-phenyl)-indan-1-yloxy]-2,3-dihydro-benzofuran-3-yl}-acetic acid], with 0.071 µM; and `Cc1ccc(O)cc1-c1cccc2c1CC[C@H]2Oc1ccc2c(c1)OC[C@H]2CC(=O)O` [Example 72, {(S)-6-[(R)-4-(5-Hydroxy-2-methyl-phenyl)-indan-1-yloxy]-2,3-dihydro-benzofuran-3-yl}-acetic acid], with 0.098 µM; and `O=C(O)C[C@@H]1COc2cc(O[C@@H]3CCc4c(-c5cccnc5C(F)(F)F)cccc43)ccc21` [Example 73, {(S)-6-[(R)-4-(2-Trifluoromethyl-pyridin-3-yl)-indan-1-yloxy]-2,3-dihydro-benzofuran-3-yl}-acetic acid], with 2.72 µM. `Cc1noc(C)c1-c1cccc2c1CC[C@H]2Oc1ccc2c(c1)OC[C@H]2CC(=O)O` [Example 74, {(S)-6-[(R)-4-(3,5-Dimethyl-isoxazol-4-yl)-indan-1-yloxy]-2,3-dihydro-benzofuran-3-yl}-acetic acid]: the EC50 turned out to be 0.327 µM.

For `O=C(O)C[C@@H]1COc2cc(O[C@@H]3CCc4c(-c5nccc6ccccc56)cccc43)ccc21` [Example 77, {(S)-6-[(R)-4-Isoquinolin-1-yl-indan-1-yloxy]-2,3-dihydro-benzofuran-3-yl}-acetic acid], the EC50 amounted to 0.057 µM. Consider `COC(C)(c1cccc2c1CC[C@H]2Oc1ccc2c(c1)OC[C@H]2CC(=O)O)C(C)(C)C` (stereo partly drawn) [Example 78, {(S)-6-[(R)-4-(1-Methoxy-1,2,2-trimethyl-propyl)-indan-1-yloxy]-2,3-dihydro-benzofuran-3-yl}-acetic acid], for which the EC50 stood at 0.076 µM.

Take `COCC(F)(F)c1cccc2c1CC[C@H]2Oc1ccc2c(c1)OC[C@H]2CC(=O)O` [Example 79, {(S)-6-[(R)-4-(1,1-Difluoro-2-methoxy-ethyl)-indan-1-yloxy]-2,3-dihydro-benzofuran-3-yl}-acetic acid]: the EC50 stood at 0.288 µM. On to `Cc1ccc2ccccc2c1-c1cccc2c1CC[C@H]2Oc1ccc2c(c1)OC[C@H]2CC(=O)O` [Example 80, {(S)-6-[(R)-4-(2-Methyl-naphthalen-1-yl)-indan-1-yloxy]-2,3-dihydro-benzofuran-3-yl}-acetic acid], for which the EC50 came out at 0.02 µM. Then `CC(O)(c1cccc2c1CC[C@H]2Oc1ccc2c(c1)OC[C@H]2CC(=O)O)C1CCOCC1` (stereo partly drawn) [Example 81, ((S)-6-{(R)-4-[1-Hydroxy-1-(tetrahydro-pyran-4-yl)-ethyl]-indan-1-yloxy}-2,3-dihydro-benzofuran-3-yl)-acetic acid], with 1.54 µM; and `C=CCCC(C)(O)c1cccc2c1CC[C@H]2Oc1ccc2c(c1)OC[C@H]2CC(=O)O` (stereo partly drawn) [Example 82, {(S)-6-[(R)-4-(1-Hydroxy-1-methyl-pent-4-enyl)-indan-1-yloxy]-2,3-dihydro-benzofuran-3-yl}-acetic acid], with 3.35 µM.

Regarding `CC(O)(CC1CCOCC1)c1cccc2c1CC[C@H]2Oc1ccc2c(c1)OC[C@H]2CC(=O)O` (stereo partly drawn) [Example 83, ((S)-6-{(R)-4-[1-Hydroxy-1-methyl-2-(tetrahydro-pyran-4-yl)-ethyl]-indan-1-yloxy}-2,3-dihydro-benzofuran-3-yl)-acetic acid], the EC50 was 0.392 µM. Consider `COC(C)(C)C(F)(F)c1cccc2c1CC[C@H]2Oc1ccc2c(c1)OC[C@H]2CC(=O)O` [Example 84, {(S)-6-[(R)-4-(1,1-Difluoro-2-methoxy-2-methyl-propyl)-indan-1-yloxy]-2,3-dihydro-benzofuran-3-yl}-acetic acid], for which the EC50 was 0.117 µM.
